This assay relates to L1210 leukemia ip in BDF1 mice, survival T/C. As to the kind of experiment: NCI In Vivo Anticancer Drug Screen. Data for tumor model L1210 Leukemia (intraperitoneal) in B6D2F1 (BDF1) mice. The note with it: endpoint: mean survival time, higher = longer survival. The method, boiled down:
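Mice bearing the transplanted tumor received compound or vehicle. Survival of the treated group was divided by that of the vehicle-treated control group to give the ratio.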

Where [1] appears, read: dose: 100.0 mg/kg/injection, schedule: Q01DX009 (ip), vehicle: Klucel (hydroxypropylcellulose) (HPC).
[2] abbreviates: dose: 200.0 mg/kg/injection, schedule: Q01DX009 (ip), vehicle: Klucel (hydroxypropylcellulose) (HPC).
Where [3] appears, read: dose: 100.0 mg/kg/injection, schedule: Q01DX009 (ip), vehicle: saline with Tween-80.
Setting [4] is: dose: 200.0 mg/kg/injection, schedule: Q01DX009 (ip), vehicle: saline with Tween-80.
[5] abbreviates: dose: 400.0 mg/kg/injection, schedule: Q01DX009 (ip), vehicle: saline with Tween-80.
Setting [6] is: dose: 100.0 mg/kg/injection, schedule: Q01DX001 (ip), vehicle: saline.
The mark [7] stands for this setting: dose: 200.0 mg/kg/injection, schedule: Q01DX001 (ip), vehicle: saline.
[8] abbreviates: dose: 400.0 mg/kg/injection, schedule: Q01DX001 (ip), vehicle: saline.
[9] abbreviates: dose: 100.0 mg/kg/injection, schedule: Q04DX003 (ip), vehicle: saline with Tween-80.
[10] abbreviates: dose: 200.0 mg/kg/injection, schedule: Q04DX003 (ip), vehicle: saline with Tween-80.
Where [11] appears, read: dose: 400.0 mg/kg/injection, schedule: Q04DX003 (ip), vehicle: saline with Tween-80.

Several values for one entry are separate records, joined by “and”; a condition that tells them apart may be missing. Equal values may be shown once. Inconclusive results and toxic doses are left out.

On to `ClC1c2ccccc2-c2nsnc2C1Cl` (stereo unspecified), for which the T/C is, setting by setting: (dose: 50.0 mg/kg/injection, schedule: Q01DX009 (ip), vehicle: Klucel (hydroxypropylcellulose) (HPC)) 94 % of control; under setting [1], 87 % of control; under setting [2], 91 % of control; (dose: 200.0 mg/kg/injection, schedule: Q04DX002 (ip), vehicle: Klucel (hydroxypropylcellulose) (HPC)) 92 % of control.

As for `CCOC(=O)/C=C(/C)Nc1ccc(SC)cc1`, the T/C by setting is: under setting [3], 100 % of control; under setting [4], 96 % of control; under setting [5], 100 % of control.

With `COc1ccc2c(c1OC)C(=O)O[C@@H]2[C@H]1c2c(cc3c(c2OC)OCO3)CCN1C`, the T/C is, setting by setting: (dose: 31.3 mg/kg/injection, schedule: Q01DX009 (ip), vehicle: saline) 95 % of control and 100 % of control (2×); (dose: 50.0 mg/kg/injection, schedule: Q01DX001 (ip), vehicle: saline) 96 % of control; (dose: 62.5 mg/kg/injection, schedule: Q01DX009 (ip), vehicle: saline) 94 % of control and 100 % of control (2×); under setting [6], 102 % of control; (dose: 125.0 mg/kg/injection, schedule: Q01DX009 (ip), vehicle: saline) 96 % of control and 97 % of control and 91 % of control; under setting [7], 107 % of control. The T/C was 102 % of control and 104 % of control and 91 % of control (dose: 250.0 mg/kg/injection, schedule: Q01DX009 (ip), vehicle: saline); 111 % of control under setting [8].

In the case of `CC1=CC(=O)C2=C(C)CCC3C(C)C(=O)OC3C12` (stereo unspecified), the T/C is, setting by setting: (dose: 200.0 mg/kg/injection, schedule: Q01DX001 (ip), vehicle: saline with Tween-80) 98 % of control; (dose: 400.0 mg/kg/injection, schedule: Q01DX001 (ip), vehicle: saline with Tween-80) 162 % of control.

As for `CC(C)N(C)c1ccc(N=Nc2cc(Cl)ccc2Cl)cc1`, the T/C is, setting by setting: under setting [9], 98 % of control; under setting [10], 102 % of control; under setting [11], 104 % of control.

`Nc1nc2c(ncn2C2OC(CO)C(O)C2O)c(=O)n1N` (stereo unspecified): the T/C by setting is: under setting [6], 102 % of control; under setting [7], 101 % of control; under setting [8], 95 % of control.

Turning to `O=S(=O)(O)c1ccc(CCCCCCl)cc1`, the T/C is, setting by setting: (dose: 100.0 mg/kg/injection, schedule: Q01DX009 (ip), vehicle: saline sonified) 107 % of control; (dose: 100.0 mg/kg/injection, schedule: Q04DX003 (ip), vehicle: saline) 95 % of control; (dose: 200.0 mg/kg/injection, schedule: Q01DX009 (ip), vehicle: saline sonified) 98 % of control; (dose: 200.0 mg/kg/injection, schedule: Q04DX003 (ip), vehicle: saline) 100 % of control; (dose: 400.0 mg/kg/injection, schedule: Q01DX009 (ip), vehicle: saline sonified) 101 % of control; (dose: 400.0 mg/kg/injection, schedule: Q04DX003 (ip), vehicle: saline) 96 % of control.

With `c1ccc(-c2nncnn2)cc1`, the T/C (dose: 25.0 mg/kg/injection, schedule: Q04DX003 (ip), vehicle: saline with Tween-80) is 97 % of control; the T/C (dose: 50.0 mg/kg/injection, schedule: Q04DX003 (ip), vehicle: saline with Tween-80) is 92 % of control; the T/C under setting [9] was 101 % of control.

Consider `CC(C)CC(CC(C)C)NC(C)COC(=O)C(c1ccccc1)c1ccccc1` (stereo unspecified), for which the T/C (dose: 75.0 mg/kg/injection, schedule: Q01DX001 (ip), vehicle: saline) is 98 % of control; the T/C (dose: 150.0 mg/kg/injection, schedule: Q01DX001 (ip), vehicle: saline) is 102 % of control; the T/C (dose: 300.0 mg/kg/injection, schedule: Q01DX001 (ip), vehicle: saline) is 100 % of control.

For `CN(C)c1ccc(/C=N/Nc2c([N+](=O)[O-])cc(C(F)(F)F)cc2[N+](=O)[O-])cc1`, the T/C reads like this: (dose: 100.0 mg/kg/injection, schedule: Q01DX009 (ip), vehicle: gum acacia) 90 % of control; (dose: 200.0 mg/kg/injection, schedule: Q01DX009 (ip), vehicle: gum acacia) 88 % of control; (dose: 400.0 mg/kg/injection, schedule: Q01DX009 (ip), vehicle: gum acacia) 88 % of control.

Turning to `[Cu+2].[NH-]CC(=O)O.[NH-]CC(=O)O`, the T/C by setting is: (dose: 5.0 mg/kg/injection, schedule: Q04DX003 (ip), vehicle: saline) 103 % of control; (dose: 10.0 mg/kg/injection, schedule: Q04DX003 (ip), vehicle: saline) 99 % of control; (dose: 20.0 mg/kg/injection, schedule: Q04DX003 (ip), vehicle: saline) 94 % of control.

In the case of `O=[N+]([O-])c1ccc2c(c1[N+](=O)[O-])CCCC2`, the T/C under setting [3] was 93 % of control; the T/C under setting [9] is 93 % of control; the T/C under setting [4] was 98 % of control; the T/C under setting [10] is 93 % of control; the T/C under setting [5] is 98 % of control; the T/C under setting [11] is 98 % of control.

In the case of `CC(=O)OCC1OC(N2C(=O)/C(=C(/C)c3ccncc3)SC2=S)C(OC(C)=O)C(OC(C)=O)C1OC(C)=O` (stereo unspecified), the T/C reads like this: (dose: 25.0 mg/kg/injection, schedule: Q01DX005 (ip), vehicle: water) 94 % of control; (dose: 50.0 mg/kg/injection, schedule: Q01DX005 (ip), vehicle: water) 97 % of control; (dose: 100.0 mg/kg/injection, schedule: Q01DX005 (ip), vehicle: water) 97 % of control; (dose: 200.0 mg/kg/injection, schedule: Q01DX005 (ip), vehicle: water) 97 % of control; (dose: 400.0 mg/kg/injection, schedule: Q01DX005 (ip), vehicle: water) 89 % of control.

In the case of `COc1ccc(/C=C2\N=C(c3ccc([N+](=O)[O-])cc3)OC2=O)cc1OC`, the T/C reads like this: under setting [1], 91 % of control; under setting [2], 93 % of control; (dose: 400.0 mg/kg/injection, schedule: Q01DX009 (ip), vehicle: Klucel (hydroxypropylcellulose) (HPC)) 101 % of control.

For the molecule `O=C(Nc1nccs1)c1cc2ccccc2cc1O`, the T/C by setting is: (dose: 100.0 mg/kg/injection, schedule: Q04DX002 (ip), vehicle: saline with Tween-80) 97 % of control; (dose: 200.0 mg/kg/injection, schedule: Q04DX002 (ip), vehicle: saline with Tween-80) 87 % of control; (dose: 400.0 mg/kg/injection, schedule: Q04DX002 (ip), vehicle: saline with Tween-80) 87 % of control.

As to `N/C(=N\O)c1cccc(/C(N)=N/O)c1`, the T/C under setting [6] is 103 % of control.

On to `CCCCCCCCCCCCCCCCCCNC(=S)SCCCC`, for which the T/C (dose: 400.0 mg/kg/injection, schedule: Q04DX002 (ip), vehicle: saline + alcohol) was 100 % of control.

Turning to `CC(C)C(C)/C=C/C(C)C1CCC2C3CCC4CC(O)CCC4(C)C3CCC12C` (stereo unspecified), the T/C is 90 % of control (dose: 100.0 mg/kg/injection, schedule: Q01DX001 (ip), vehicle: Klucel (hydroxypropylcellulose) (HPC)) and 97 % of control (dose: 200.0 mg/kg/injection, schedule: Q01DX001 (ip), vehicle: Klucel (hydroxypropylcellulose) (HPC)).

On to `CS(=O)(=O)OC1C2CCC(C2=C(c2ccccc2)c2ccccc2)C1OS(C)(=O)=O` (stereo unspecified), for which the T/C (dose: 75.0 mg/kg/injection, schedule: Q01DX001 (ip), vehicle: carboxymethylcellulose (CMC)) is 93 % of control; the T/C (dose: 150.0 mg/kg/injection, schedule: Q01DX001 (ip), vehicle: carboxymethylcellulose (CMC)) was 101 % of control; the T/C (dose: 300.0 mg/kg/injection, schedule: Q01DX001 (ip), vehicle: carboxymethylcellulose (CMC)) is 91 % of control.

In the case of `O=C1c2ccccc2C(=O)N1CCCCCCN1C(=O)c2ccccc2C1=O`, the T/C by setting is: (dose: 100.0 mg/kg/injection, schedule: Q04DX002 (ip), vehicle: gum acacia) 96 % of control; (dose: 200.0 mg/kg/injection, schedule: Q04DX002 (ip), vehicle: gum acacia) 107 % of control; (dose: 400.0 mg/kg/injection, schedule: Q04DX002 (ip), vehicle: gum acacia) 101 % of control.

On to `Cc1ccc(NC(=O)C(F)(F)C(F)(F)C(F)(F)F)cc1`, for which the T/C was 89 % of control under setting [6], 97 % of control under setting [7] and 105 % of control under setting [8].

These data come from PubChem BioAssay AID248 (DTP/NCI, 2004).
